# According to US20260256826A1, “PREPARATION METHOD AND APPLICATION OF ZINC HYALURONATE” (BLOOMAGE BIOTECHNOLOGY CORPORATION LIMITED, priority 2022, published 2026):
# What was measured:
# [1] = Hydroxyl radical scavenging, salicylic acid method; conditions: 0.5% solution
# Text: The salicylic acid method was used to determine the hydroxyl radical scavenging ability of zinc hyaluronate samples. A certain amount of H2O2 and FeSO4 were mixed to produce hydroxyl radicals by Fenton reaction. Adding salicylic acid to the reaction system can capture hydroxyl radicals and produce 3-hydroxysalicylic acid and 5-hydroxysalicylic acid. Both products have strong absorption at 510 nm. The reaction equation is as follows: The addition of the sample will compete with salicylic acid for the reaction with OH, thereby reducing the production of 3-hydroxysalicylic acid and 5-hydroxysalicylic acid. The fixed reaction time method was used to measure the absorbance of the reaction solution at 510 nm and compare it with the blank solution to determine the scavenging effect of the analyte on hydroxyl free radicals. The scavenging rate is calculated as follows: In the formula, S is the scavenging rate, A0 is the absorbance value of the blank control, Ax is the absorbance value when the sample is added, and Ax0 is the absorbance value without adding the color developer.
# [2] = Superoxide anion scavenging, pyrogallol self-oxidation method; conditions: 0.5% solution
# Protocol: The pyrogallol self-oxidation method was used. Under weakly alkaline conditions, pyrogallol can undergo self-oxidation reaction to generate superoxide anions and a colored intermediate product with a characteristic absorption peak at 320 nm. In the initial trial stage, the amount of intermediate product is linearly related to time. Since the self-oxidation rate depends on the concentration of superoxide anions, when a superoxide anion scavenger is added, it can react quickly with superoxide anions to inhibit the self-oxidation reaction, thereby preventing the accumulation of intermediates and weakening the light absorption of the solution at 320 nm. Therefore, the scavenging effect of the scavenger on superoxide anions can be evaluated by measuring the […] value. scavenging rate of superoxide anion free radical (%)=(A0-Ax)/A0×100%
compound,measurement,setting,value
CC(=O)[O-].CC(=O)[O-].[Zn+2] [zinc acetate dihydrate],hydroxyl free radical scavenging ability (in words),[1],significantly lower than that of HA-Zn
same,superoxide anion free radical scavenging ability (in words),[2],significantly lower than that of HA-Zn
